Patent publication US8192962B2, “Processes for detecting toxic substances” (Daikin Industries, Ltd., priority 2001, dated 2012)

Test system: Genes belonging to other category
Test: DNA chip mRNA expression in yeast, genes belonging to other category (Table 9)
Assay type: cell-based, Saccharomyces cerevisiae S288C
Protocol: Yeast (Saccharomyces cerevisiae S288C (α SUC2mal mel gap2 CUP1)) were incubated at 25° C. on YPD medium (yeast extract 1%, polypepton 2%, glucose 2%). One of toxic chemical substances was added to the cells at logarithmic growth phase, and the cells were further incubated for two hours. Cells were cultured without any chemical substance in the same condition, and were used as control. Concentrations of the chemical substances were defined to inhibit the growth of the yeast but not lead to death.
After completion of the incubation, the culture was centrifuged to collect the cells. To the cells, sodium acetate buffer (50 mM sodium acetate, 10 mM EDTA, 1% SDS) was added, and the mixture was shaken at 65° C. for five minutes, followed by returning to room temperature, and obtaining the supernatant, of which the procedures were repeated two times. To the supernatant, ½ amount of a solution of phenol/chloroform was added, and the mixture was centrifuged to give a supernatant, which was added with an equal amount of chloroform, and the mixture was centrifuged to give a supernatant. To the supernatant, an equal amount of isopropanol containing 0.3 M sodium acetate was added, and the mixture was allowed to stand at room temperature for 30 minutes, after which the mixture was centrifuged to give a sediment of the whole RNAs. Seventy % ethanol was added to the sediment, and the mixture was again centrifuged to give a sediment, which was then dried and dissolved in water. mRNA was isolated from the whole RNAs as followings. In view of the fact that a poly A chain is attached to the 3′ terminus of mRNA, a polynucleotide having a poly T structure which was immobilized on the surface of latex beads was used to trap the mRNA, and then the mRNA was washed and eluted with spine column (Oligotex-dT30<Super>mRNA Purification Kit, Takara). Reverse transcription of the mRNA was conducted with a reverse transcriptase (Super Script II Reverse Transcriptase; catalogue No. 18064-014, GibcoBRL) using fluorescence-labeled nucleotides to give cDNAs that were introduced with Cy3-dUTP or Cy5-dUTP during the reverse transcription.
The labeled cDNAs were dissolved in TE buffer (10mM Tris-HCl/1 mM EDTA, pH8.0), and the solution was dropped on the DNA chip containing the whole genes of yeast (DNA Chip Research Inc. Japan) so that the cDNAs were hybridized on the DNA chip at 65° C. for over 12 hours. The fluoresces intensity of the DNA chip was read with a scanner, and the ratio relative to the fluorescence intensity resulting from the absence of chemical substance was estimated as the following, which is shown in Tables 1 to 9: […]

[Cl][Hg][Cl] [(3), HgCl2]
The level of expressed mRNA in the presence of chemical substance/The level of expressed mRNA in the absence of chemical substance (yeast gene YKL008C): 2.0 | The level of expressed mRNA in the presence of chemical substance/The level of expressed mRNA in the absence of chemical substance (yeast gene YKL013C): 1.4 | The level of expressed mRNA in the presence of chemical substance/The level of expressed mRNA in the absence of chemical substance (yeast gene YKL039W): 2.4 | The level of expressed mRNA in the presence of chemical substance/The level of expressed mRNA in the absence of chemical substance (yeast gene YKL096W): 8.1 | The level of expressed mRNA in the presence of chemical substance/The level of expressed mRNA in the absence of chemical substance (yeast gene YKL165C): 1.1 | The level of expressed mRNA in the presence of chemical substance/The level of expressed mRNA in the absence of chemical substance (yeast gene YKL193C): 1.1 | The level of expressed mRNA in the presence of chemical substance/The level of expressed mRNA in the absence of chemical substance (yeast gene YLR120C): 2.4 | The level of expressed mRNA in the presence of chemical substance/The level of expressed mRNA in the absence of chemical substance (yeast gene YLR136C): 0.6 | The level of expressed mRNA in the presence of chemical substance/The level of expressed mRNA in the absence of chemical substance (yeast gene YLR178C): 8.8 | The level of expressed mRNA in the presence of chemical substance/The level of expressed mRNA in the absence of chemical substance (yeast gene YLR250W): 1.0 | The level of expressed mRNA in the presence of chemical substance/The level of expressed mRNA in the absence of chemical substance (yeast gene YLR327C): 14.4 | The level of expressed mRNA in the presence of chemical substance/The level of expressed mRNA in the absence of chemical substance (yeast gene YLR356W): 4.9 | The level of expressed mRNA in the presence of chemical substance/The level of expressed mRNA in the absence of chemical substance (yeast gene YLR362W): 1.0 | The level of expressed mRNA in the presence of chemical substance/The level of expressed mRNA in the absence of chemical substance (yeast gene YLR391W): 2.9 | The level of expressed mRNA in the presence of chemical substance/The level of expressed mRNA in the absence of chemical substance (yeast gene YLR429W): 0.6 | The level of expressed mRNA in the presence of chemical substance/The level of expressed mRNA in the absence of chemical substance (yeast gene YMR004W): 1.3 | The level of expressed mRNA in the presence of chemical substance/The level of expressed mRNA in the absence of chemical substance (yeast gene YMR094W): 1.3 | The level of expressed mRNA in the presence of chemical substance/The level of expressed mRNA in the absence of chemical substance (yeast gene YMR104C): 2.2 | The level of expressed mRNA in the presence of chemical substance/The level of expressed mRNA in the absence of chemical substance (yeast gene YMR219W): 1.0 | The level of expressed mRNA in the presence of chemical substance/The level of expressed mRNA in the absence of chemical substance (yeast gene YMR226C): 1.4 | The level of expressed mRNA in the presence of chemical substance/The level of expressed mRNA in the absence of chemical substance (yeast gene YMR275C): 1.2 | The level of expressed mRNA in the presence of chemical substance/The level of expressed mRNA in the absence of chemical substance (yeast gene YMR276W): 1.5 | The level of expressed mRNA in the presence of chemical substance/The level of expressed mRNA in the absence of chemical substance (yeast gene YMR314W): 0.9 | The level of expressed mRNA in the presence of chemical substance/The level of expressed mRNA in the absence of chemical substance (yeast gene YNL006W): 1.3 | The level of expressed mRNA in the presence of chemical substance/The level of expressed mRNA in the absence of chemical substance (yeast gene YNL007C): 5.1 | The level of expressed mRNA in the presence of chemical substance/The level of expressed mRNA in the absence of chemical substance (yeast gene YNL093W): 0.4 | The level of expressed mRNA in the presence of chemical substance/The level of expressed mRNA in the absence of chemical substance (yeast gene YNL333W): 1.7 | The level of expressed mRNA in the presence of chemical substance/The level of expressed mRNA in the absence of chemical substance (yeast gene YNR010W): 0.5 | The level of expressed mRNA in the presence of chemical substance/The level of expressed mRNA in the absence of chemical substance (yeast gene YNR069C): 0.7 | The level of expressed mRNA in the presence of chemical substance/The level of expressed mRNA in the absence of chemical substance (yeast gene YOL013C): 1.0 | The level of expressed mRNA in the presence of chemical substance/The level of expressed mRNA in the absence of chemical substance (yeast gene YOL164W): 1.0 | The level of expressed mRNA in the presence of chemical substance/The level of expressed mRNA in the absence of chemical substance (yeast gene YOR036W): 1.4 | The level of expressed mRNA in the presence of chemical substance/The level of expressed mRNA in the absence of chemical substance (yeast gene YOR117W): 1.7 | The level of expressed mRNA in the presence of chemical substance/The level of expressed mRNA in the absence of chemical substance (yeast gene YOR124C): 1.3 | The level of expressed mRNA in the presence of chemical substance/The level of expressed mRNA in the absence of chemical substance (yeast gene YOR132W): 0.8 | The level of expressed mRNA in the presence of chemical substance/The level of expressed mRNA in the absence of chemical substance (yeast gene YOR157C): 1.2 | The level of expressed mRNA in the presence of chemical substance/The level of expressed mRNA in the absence of chemical substance (yeast gene YOR181W): 1.1 | The level of expressed mRNA in the presence of chemical substance/The level of expressed mRNA in the absence of chemical substance (yeast gene YOR185C): 1.9 | The level of expressed mRNA in the presence of chemical substance/The level of expressed mRNA in the absence of chemical substance (yeast gene YOR198C): 1.4 | The level of expressed mRNA in the presence of chemical substance/The level of expressed mRNA in the absence of chemical substance (yeast gene YOR259C): 0.8 | The level of expressed mRNA in the presence of chemical substance/The level of expressed mRNA in the absence of chemical substance (yeast gene YOR261C): 0.6 | The level of expressed mRNA in the presence of chemical substance/The level of expressed mRNA in the absence of chemical substance (yeast gene YOR288C): 1.1 | The level of expressed mRNA in the presence of chemical substance/The level of expressed mRNA in the absence of chemical substance (yeast gene YOR355W): 1.1 | The level of expressed mRNA in the presence of chemical substance/The level of expressed mRNA in the absence of chemical substance (yeast gene YOR383C): 2.6 | The level of expressed mRNA in the presence of chemical substance/The level of expressed mRNA in the absence of chemical substance (yeast gene YPL089C): 0.5 | The level of expressed mRNA in the presence of chemical substance/The level of expressed mRNA in the absence of chemical substance (yeast gene YPL109C): 0.5 | The level of expressed mRNA in the presence of chemical substance/The level of expressed mRNA in the absence of chemical substance (yeast gene YPL149W): 0.6 | The level of expressed mRNA in the presence of chemical substance/The level of expressed mRNA in the absence of chemical substance (yeast gene YPL154C): 4.2 | The level of expressed mRNA in the presence of chemical substance/The level of expressed mRNA in the absence of chemical substance (yeast gene YPR103W): 1.3 | The level of expressed mRNA in the presence of chemical substance/The level of expressed mRNA in the absence of chemical substance (yeast gene YPR108W): 1.3
